The test system of the experiment is Plasmodium berghei. The experiment in a line: Luciferase/luciferin-expressing antifolate-resistant parasites were used to infect a culture of HepG2 cells that were pre-incubated with compounds. Infected hepatocytes emit light due to the luciferase reaction. Assay results are presented as the percent inhibition of light emission compared to control. […]. The format is functional. The conditions noted are these: sporozoite; for IC90: read-out: LUCIFERASE INFECTION ASSAY - IC90.

The mark [1] stands for this setting: read-out: LUCIFERASE INFECTION ASSAY - IC50.

This note sets out measurements from ChEMBL document CHEMBL4483862, “Open-source discovery of chemical leads for next-generation chemoprotective antimalarials” (2018).

In general, IC50 refers to the concentration that gives 50% inhibition. One may read the IC90 as the concentration at which the effect reaches the 90% level.

Structures are written as SMILES.

`Nn1c(SCC(=O)c2c[nH]c3ccccc23)nnc1C(F)(F)F`: the IC90 is 8.78 µM. Besides, the IC50 (HEPG2TOX_HILL_SLOPE 1.03, HEPG2TOX_R_SQUARED 0.976, PBLUC_HILL_SLOPE 0.599, PBLUC_R_SQUARED 0.712, read-out: LUCIFERASE INFECTION ASSAY - IC50) stood at 0.224 µM.
Consider `COc1ccc(OCCN2CCN(CC(=O)Nc3nc(-c4c[nH]c5ccccc45)cs3)CC2)cc1`, for which the IC90 came out at 9.98 µM. For the same molecule, under “FFLUC_HILL_SLOPE 11.8, FFLUC_R_SQUARED 0.598, PBLUC_HILL_SLOPE 24.3, PBLUC_R_SQUARED 0.264, read-out: LUCIFERASE INFECTION ASSAY - IC50”, the IC50 was 9.11 µM.
Turning to `O=C(NCc1cc(C(F)(F)F)cc(C(F)(F)F)c1)c1cc(Cl)cc(Cl)c1`, the IC90 was > 7.93 µM. For the same molecule, under setting [1], the half-maximal inhibitory concentration (IC50) was > 7.93 µM.
With `CCOC(=O)c1sc(SC)c2c1CCc1c[nH]nc1-2`, the IC90 was > 11.2 µM. Further, where the note is “FFLUC_HILL_SLOPE 10.3, FFLUC_R_SQUARED 0.371, read-out: LUCIFERASE INFECTION ASSAY - IC50”, the half-inhibitory concentration (IC50) was > 11.2 µM.
For `Cc1[nH]c2ccccc2c1C(=O)COc1ccc(N(C)S(=O)(=O)c2ccccc2F)cc1`, the IC90 is > 10 µM. Besides, the IC50 (PBLUC_HILL_SLOPE 1.92, PBLUC_R_SQUARED 0.479, read-out: LUCIFERASE INFECTION ASSAY - IC50) was 5.26 µM.
On to `OCc1ccc(-c2cnc3ccc(-c4cccc(Cl)c4)nn23)cc1`, for which the IC90 was determined as 3.31 µM. The IC50 (FFLUC_HILL_SLOPE 12.3, FFLUC_R_SQUARED 0.916, HEPG2TOX_HILL_SLOPE 9.11, HEPG2TOX_R_SQUARED 0.904, PBLUC_HILL_SLOPE 1.55, PBLUC_R_SQUARED 0.705, read-out: LUCIFERASE INFECTION ASSAY - IC50) was 0.798 µM.
In the case of `CN1CCN(C(=O)c2ccc(-c3cnc4cnc(/C=C/c5ccccc5)cn34)cc2)CC1`, the IC90 is > 7.79 µM. For the setting “HEPG2TOX_HILL_SLOPE 0.285, HEPG2TOX_R_SQUARED 0.311, PBLUC_HILL_SLOPE 1.14, PBLUC_R_SQUARED 0.7, read-out: LUCIFERASE INFECTION ASSAY - IC50”, the IC50 worked out at 3.11 µM.
As to `CC1(C)CC2CC(C)(CN2C(=O)CN2CCN(c3cccc(C(F)(F)F)c3)CC2)C1` (stereo not drawn), the IC90 was > 10 µM. The IC50 (PBLUC_HILL_SLOPE 7.96, PBLUC_R_SQUARED 0.534, read-out: LUCIFERASE INFECTION ASSAY - IC50) was 9.19 µM.
Regarding `Cn1c(N)c(C(=O)COC(=O)c2c3c(nc4ccccc24)CCCCC3)c(=O)n(C)c1=O`, the IC90 was > 10 µM. Moreover, under setting [1], the IC50 was 8.99 µM.
Consider `CCOC(=O)C1=C(Nc2ccc(OS(=O)(=O)c3ccc(Cl)cc3)cc2)C(=O)N(C(C)(C)C)C1`, for which the 90% effect concentration (IC90) is > 6.69 µM. In addition, the IC50 under setting [1] was > 6.69 µM.
For the molecule `COc1ccc(OCCN2CCN(C(C)C(=O)Nc3sccc3C(N)=O)CC2)cc1` (stereo not drawn), the IC90 was > 10 µM. Besides, the IC50 under setting [1] is > 10 µM.
For the molecule `N#Cc1c(N2CCCC2)nn(C(=O)Nc2ccc(Cl)c(Cl)c2)c1N`, the IC90 was determined as 3.89 µM. For the setting “PBLUC_HILL_SLOPE 16.1, PBLUC_R_SQUARED 0.491, read-out: LUCIFERASE INFECTION ASSAY - IC50”, the IC50 was determined as 3.39 µM.
In the case of `COc1ccc(/C=C2\Oc3c(CN(C)C)c(O)cc(C)c3C2=O)cc1`, the IC90 is > 9.72 µM. Further, the half-inhibitory concentration (IC50) under setting [1] was > 9.72 µM.
As to `COc1ccc(C(=O)/C(=C\c2ccc([N+](=O)[O-])cc2)c2nc3ccccc3[nH]2)cc1`, the 90% effect concentration (IC90) was 9.32 µM. Also, the half-maximal inhibitory concentration (IC50) (FFLUC_HILL_SLOPE 7.19, FFLUC_R_SQUARED 0.76, HEPG2TOX_HILL_SLOPE 6.54, HEPG2TOX_R_SQUARED 0.945, PBLUC_HILL_SLOPE 13.7, PBLUC_R_SQUARED 0.214, read-out: LUCIFERASE INFECTION ASSAY - IC50) is 7.93 µM.
With `Fc1ccc(N2CCN(c3nc(CN4CCOCC4)nc4scc(-c5ccccc5)c34)CC2)cc1`, the IC90 was > 10 µM. For the same molecule, for the setting “HEPG2TOX_HILL_SLOPE 0.184, HEPG2TOX_R_SQUARED 0.0625, read-out: LUCIFERASE INFECTION ASSAY - IC50”, the IC50 was > 10 µM.
As for `CC1CCN(Cc2csc(NC(=O)c3ccc(SCc4cscn4)cc3)n2)CC1`, the IC90 amounted to 9.76 µM. Moreover, the IC50 (HEPG2TOX_HILL_SLOPE 2.61, HEPG2TOX_R_SQUARED 0.966, PBLUC_HILL_SLOPE 9.48, PBLUC_R_SQUARED 0.381, read-out: LUCIFERASE INFECTION ASSAY - IC50) worked out at 7.74 µM.
Regarding `O=C1c2ccccc2O[C@@H](c2ccccc2)[C@H]1O`, the IC90 is > 13.7 µM. Also, the IC50 under setting [1] is > 13.7 µM.
Regarding `CNc1nc2cnc(Nc3cccc(C)c3)cc2n1Cc1ccc(OC)c(OC)c1`, the IC90 is > 10 µM. Moreover, the IC50 (HEPG2TOX_HILL_SLOPE 6.56, HEPG2TOX_R_SQUARED 0.678, read-out: LUCIFERASE INFECTION ASSAY - IC50) is > 10 µM.
On to `O=C(COC(=O)c1cc(-c2ccc(OC(F)F)cc2)nc2ccccc12)Nc1nnc(-c2ccccc2)o1`, for which the IC90 was > 10 µM. Further, the IC50 under setting [1] was > 10 µM.
`O=C(NNc1cccc(F)n1)C(F)(F)F`: the IC90 was determined as 0.37 µM. In addition, where the note is “PBLUC_HILL_SLOPE 2.9, PBLUC_R_SQUARED 0.705, read-out: LUCIFERASE INFECTION ASSAY - IC50”, the IC50 was determined as 0.174 µM.
Regarding `CCC(C)(C)C1CCC(NC(=O)c2ccc(OC)c(OC)c2OC)CC1` (stereo not drawn), the IC90 was > 10 µM. Moreover, the IC50 under setting [1] was > 10 µM.
For `COc1cc(NC(=O)COC(=O)c2ccccc2Nc2ccc(SC(F)F)cc2)c(C)cc1[N+](=O)[O-]`, the IC90 is > 10 µM. Further, the 50% inhibitory concentration (IC50) (HEPG2TOX_HILL_SLOPE 0.171, HEPG2TOX_R_SQUARED 0.654, read-out: LUCIFERASE INFECTION ASSAY - IC50) was > 10 µM.
In the case of `COc1ccc(C)cc1NC(=O)CN(Cc1ccc2c(c1)OCO2)C1CCCC1`, the IC90 is > 10 µM. The IC50 under setting [1] was > 10 µM.
As for `CCOc1cc(/C=C(/C(=O)NCc2ccc(Cl)cc2)c2nc3ccccc3[nH]2)ccc1OC`, the IC90 is > 10 µM. The IC50 (HEPG2TOX_HILL_SLOPE 5.77, HEPG2TOX_R_SQUARED 0.35, PBLUC_HILL_SLOPE 0.685, PBLUC_R_SQUARED 0.126, read-out: LUCIFERASE INFECTION ASSAY - IC50) was > 10 µM.
For the molecule `Cn1c(Sc2cnc(SCc3ccc(Cl)cc3)nc2-c2ccccc2)nnc1C(F)(F)F`, the IC90 is > 6.68 µM. For the same molecule, the IC50 under setting [1] was > 6.68 µM.
In the case of `CC(CCc1ccccc1)NC(=O)CN1CCN(C/C=C/c2ccccc2)CC1` (stereo not drawn), the IC90 is > 10 µM. Under setting [1], the half-maximal inhibitory concentration (IC50) was > 10 µM.
In the case of `Cc1ccc(-n2c(C)nnc2SCCCc2nc(-c3ccccc3)no2)cc1`, the IC90 is > 10 µM. In addition, the IC50 under setting [1] was > 10 µM.
In the case of `O=C(Nc1ccc2c(c1)OCO2)C1CCN(C(C(=O)c2c[nH]c3ccccc23)c2ccccc2)CC1` (stereo not drawn), the IC90 was > 10 µM. In addition, the IC50 (FFLUC_HILL_SLOPE 60.7, FFLUC_R_SQUARED 0.292, PBLUC_HILL_SLOPE 4.02, PBLUC_R_SQUARED 0.0454, read-out: LUCIFERASE INFECTION ASSAY - IC50) came to 7.8 µM.
For the molecule `CC1CCc2nc(/C(C#N)=C/c3ccccc3OC(F)F)sc2C1` (stereo not drawn), the IC90 came out at 3.92 µM. Besides, for the setting “FFLUC_HILL_SLOPE 11.1, FFLUC_R_SQUARED 0.825, PBLUC_HILL_SLOPE 3.87, PBLUC_R_SQUARED 0.911, read-out: LUCIFERASE INFECTION ASSAY - IC50”, the IC50 turned out to be 2.22 µM.
Regarding `CC(C)(C)c1ccc(C(=O)Nc2ccc(N3CCCS3(=O)=O)cc2)cc1[N+](=O)[O-]`, the IC90 came to 5.03 µM. For the same molecule, the IC50 (HEPG2TOX_HILL_SLOPE 9.4, HEPG2TOX_R_SQUARED 0.847, PBLUC_HILL_SLOPE 1.92, PBLUC_R_SQUARED 0.511, read-out: LUCIFERASE INFECTION ASSAY - IC50) amounted to 1.6 µM.
Consider `c1coc(-c2c3c(nc4c2oc2ccccc24)CCCCCCCCCC3)c1`, for which the IC90 was > 10 µM. Moreover, the 50% inhibitory concentration (IC50) (FFLUC_HILL_SLOPE 1.77, FFLUC_R_SQUARED 0.636, read-out: LUCIFERASE INFECTION ASSAY - IC50) is > 10 µM.
Take `c1ccc(CNCc2cn(-c3ccccc3)nc2-c2ccncc2)cc1`: the IC90 is > 8.76 µM. Moreover, the IC50 (PBLUC_HILL_SLOPE 0.853, PBLUC_R_SQUARED 0.208, read-out: LUCIFERASE INFECTION ASSAY - IC50) was > 8.76 µM.
Take `C=CCSc1nnc(-c2ccc(C(C)(C)C)cc2)n1-c1ccc(Cl)cc1`: the IC90 was > 8.59 µM. For the same molecule, the 50% inhibitory concentration (IC50) (PBLUC_HILL_SLOPE 0.788, PBLUC_R_SQUARED 0.735, read-out: LUCIFERASE INFECTION ASSAY - IC50) is > 8.59 µM.
Turning to `CCc1ccccc1NC(=O)C(C)SCc1ccccc1` (stereo not drawn), the IC90 is > 11 µM. Moreover, where the note is “PBLUC_HILL_SLOPE 11.9, PBLUC_R_SQUARED 0.654, read-out: LUCIFERASE INFECTION ASSAY - IC50”, the half-maximal inhibitory concentration (IC50) was 9.84 µM.
Turning to `Cc1nc(C(=O)NNC(=O)c2ccc(C(C)(C)C)cc2)cs1`, the IC90 was 6.76 µM. The IC50 (HEPG2TOX_HILL_SLOPE 1.77, HEPG2TOX_R_SQUARED 0.966, PBLUC_HILL_SLOPE 4.32, PBLUC_R_SQUARED 0.361, read-out: LUCIFERASE INFECTION ASSAY - IC50) stood at 4.06 µM.
As to `O=C(Nc1ccc(Oc2ccccc2)cc1)c1noc(-c2ccccc2)n1`, the IC90 came out at 6.61 µM. Also, the IC50 (PBLUC_HILL_SLOPE 3.74, PBLUC_R_SQUARED 0.217, read-out: LUCIFERASE INFECTION ASSAY - IC50) turned out to be 3.67 µM.
Turning to `C/C(N)=C(/C#N)C(=O)CSc1nnc(-c2ccc(C(C)(C)C)cc2)n1-c1cccc(Cl)c1Cl`, the IC90 was > 10 µM. Moreover, under setting [1], the IC50 is > 10 µM.
As for `CC(C)(C)c1ccc(C(=O)N/N=C/c2cc(Cl)cc(Cl)c2O)cc1`, the IC90 was > 9.03 µM. Under setting [1], the concentration for half-maximal inhibition (IC50) is > 9.03 µM.
For `CCN(CC)c1ccc(NC(=O)c2ccc(C)cc2)c(N(CC)CC)n1`, the IC90 is > 9.31 µM. Further, the IC50 under setting [1] is > 9.31 µM.
